Laboratory results: patent US7989431B2, “2-propynyl adenosine analogs with modified 5′-ribose groups having A2A agonist activity” (University of Virginia Patent Foundation, priority 2004, dated 2011)
Where two headings read alike, the source gives them in different places.

How the values were obtained:
human A1 AR = target: T1, human A1 AR (Homo sapiens, UniProt P30542); assay: Radioligand competition binding, human A1 AR; details: binding affinity; 125I-ABA; membranes of CHO K1 cells stably expressing human A1 AR
T1 construct: expressed in transfected cells; membranes
T1 sequence (P30542 1-326): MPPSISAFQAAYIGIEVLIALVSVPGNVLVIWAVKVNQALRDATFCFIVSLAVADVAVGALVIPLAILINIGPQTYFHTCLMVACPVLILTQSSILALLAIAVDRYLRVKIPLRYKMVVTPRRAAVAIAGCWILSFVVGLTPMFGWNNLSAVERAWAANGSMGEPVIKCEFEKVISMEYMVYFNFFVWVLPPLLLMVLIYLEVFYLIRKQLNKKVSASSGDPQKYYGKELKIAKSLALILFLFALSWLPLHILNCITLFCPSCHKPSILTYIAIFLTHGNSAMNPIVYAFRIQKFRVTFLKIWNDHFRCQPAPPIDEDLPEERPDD
Procedure: (§1) Sf9 cells were cultured in Grace's medium supplemented with 10% fetal bovine serum, 2.5 μg/ml amphotericin B and 50 μg/ml gentamycin in an atmosphere of 50% N2/50% O2. Viral infection was performed at a density of 2.5×10^6 cells/mL with a multiplicity of infection of two for each virus used. Infected cells were harvested 3 days post-infection and washed twice in insect PBS (PBS pH 6.3). Cells were then resuspended in lysis buffer (20 mM HEPES pH 7.5, 150 mM NaCl, 3 mM MgCl2, 1 mM β-mercaptoethanol (BME), 5 μg/mL leupeptin, 5 μg/mL pepstatin A, 1 μg/mL aprotinin, and 0.1 mM PMSF) and snap frozen for storage at −80° C. Cells were thawed on ice, brought to 30 mL total volume in lysis buffer, and burst by N2 cavitation (600 psi for 20 minutes). A low-speed centrifugation was performed to remove any unlysed cells (1000×g for 10 minutes), followed by a high-speed centrifugation (17,000×g for 30 minutes). The pellet from the final centrifugation was homogenized in buffer containing 20 mM HEPES pH 8, 100mM NaCl, 1% glycerol, 2 μg/mL leupeptin, 2 μg/mL pepstatin A, 2 μg/mL Aprotinin, 0.1 mM PMSF, and 10 μM GDP using a small glass homogenizer followed by passage through a 26 gauge needle. Membranes were aliquoted, snap frozen in liquid N2, and stored at −80° C. Membranes from cells stably expressing the human A1 AR(CHO K1 cells) or A3 AR(HEK 293 cells) were prepared as described (Robeva et al., 1996).
(§2) Radioligand binding to recombinant human A2A receptors in Sf9 cell membranes was performed using either the radio labeled agonist, ^125I-APE (Luthin et al., 1995) or the radio labeled antagonist, ^125I-ZM241385 (^125I-ZM). To detect the high affinity, GTPγS-sensitive state of A1 and A3AR, we used the agonist, ^125I-ABA (Linden et al., 1985; Linden et al., 1993). Binding experiments were performed in triplicate with 5 μg (A2A) or 25 μg (A1 and A3) membrane protein in a total volume of 0.1 mL HE buffer (20 mM HEPES and 1 mM EDTA) with 1 U/mL adenosine deaminase and 5 mM MgCl2 with or without 50 μM GTPγS. Membranes were incubated with radioligands at room temperature for three hours (for agonists) or two hours (for antagonists) in Millipore Multiscreen® 96-well GF/C filter plates and assays were terminated by rapid filtration on a cell harvester (Brandel, Gaithersburg, Md.) followed by 4×150 μl washes over 30 seconds with ice cold 10 mM Tris-HCl, pH 7.4, 10 mM MgCl2. Nonspecific binding was measured in the presence of 50 μM NECA. Competition binding assays were performed as described (Robeva et al., 1996) using 0.5-1 nM ^125I-APE, ^125I-ZM241385, or ^125I-ABA. […]

[1] = target: T2, recombinant human A2A receptors (Homo sapiens, UniProt P29274); assay: Radioligand competition binding, recombinant human A2A receptors; details: binding affinity; 125I-APE or 125I-ZM241385; Sf9 cell membranes
T2 construct: expressed in transfected cells; host or cells: Sf9 insect cells, viral infection; membranes
Procedure: as §1, §2

A3 AR = target: T3, A3 AR (Homo sapiens, UniProt P0DMS8); assay: Radioligand competition binding, human A3 AR; details: binding affinity; 125I-ABA; membranes of HEK 293 cells stably expressing human A3 AR
T3 construct: expressed in transfected cells; membranes
T3 sequence (P0DMS8 1-318): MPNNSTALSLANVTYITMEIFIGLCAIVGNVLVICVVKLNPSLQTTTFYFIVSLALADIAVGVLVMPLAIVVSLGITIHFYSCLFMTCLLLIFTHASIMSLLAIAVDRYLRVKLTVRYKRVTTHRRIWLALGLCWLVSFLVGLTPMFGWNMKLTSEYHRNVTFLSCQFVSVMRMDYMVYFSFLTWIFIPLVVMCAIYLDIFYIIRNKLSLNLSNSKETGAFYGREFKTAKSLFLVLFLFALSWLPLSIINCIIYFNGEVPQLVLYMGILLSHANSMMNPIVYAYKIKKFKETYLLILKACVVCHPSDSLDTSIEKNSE
Procedure: as §1, §2

human neutrophils = assay: Human neutrophil oxidative activity, luminol-enhanced chemiluminescence; assay type: cell-based; details: fMLP-stimulated peak chemiluminescence
Excerpt: Chemiluminescence Methods: Luminol enhanced chemiluminescence, a measure of neutrophil oxidative activity, is dependent upon both superoxide production and mobilization of the granule enzyme myeloperoxidase. The light is emitted from unstable high-energy oxygen species such as hypochlorous acid and singlet oxygen generated by activated neutrophils.
Purified human neutrophils (2×10^6/ml) suspended in Hanks balanced salt solution containing 0.1% human serum albumin (HA), adenosine deaminase (1 U/mL) and rolipram (100 nM) were incubated (37° C.) in a water bath for 15 min with or without rhTNF(10 U/ml). Following incubation 100 µL aliquots of the PMN were transferred to wells (White walled clear bottom 96 well tissue culture plates Costar #3670; 2 wells/condition) containing […] and luminol (final concentration 100 µM) with or without adenosine agonist (final agonist concentrations 0.01-1000 nM). The plate was incubated 5 min (37° C.) and then fMLP (501 in HA; final concentration […]) was added to all wells.
Peak chemiluminescence was determined with a Victor 1420 Multilabel Counter in the chemiluminescence mode using the Wallace Workstation software. Data are presented as peak chemiluminescence as percent of activity in the absence of an adenosine agonist. The EC50 was determined using PRISM software. All compounds were tested with PMNs from three separate donors.
f-met-leu-phe (fMLP), luminol, superoxide dismutase, cytochrome C, fibrinogen, adenosine deaminase, and trypan blue were obtained from Sigma Chemical. Ficoll-hypaque was purchased from ICN (Aurora, Ohio), and Cardinal Scientific (Santa Fe, N. Mex.) and Accurate Chemicals and Scientific (Westerbury, N.Y.). Endotoxin (lipopolysaccharide; E. coli K235) was from List Biologicals (Campbell, Calif.). Hanks balanced salt solution (HBSS), and limulus amebocyte lysate assay kit were from BioWittaker (Walkersville, Md.). Human serum albumin (HSA) was from Cutter Biological (Elkhart, Ind.). Recombinant human tumor necrosis factor-alpha was supplied by Dianippon Pharmaceutical Co. Ltd. (Osaka, Japan). ZM241385 (4-(2-[7-amino-2-(2-furyl) [1,2,4]triazolo[2,3-a][1,3,5]triazin-5-yl amino]ethyl)phenol) was a gift from Simon Poucher, Zeneca Pharmaceuticals, Cheshire, UK. Stock solutions (1 mM and 10 mM in DMSO) were made and stored at −20° C.
Purified neutrophils (−98% neutrophils and >95% viable by trypan blue exclusion) containing <1 platelet per 5 neutrophils and <50 pg/ml endotoxin (limulus amebocyte lysate assay) were obtained from normal heparinized (10 U/ml) venous blood by a one step Ficoll-hypaque separation procedure (A. Ferrante et al., J. Immunol. Meth., 36, 109 (1980)).
Luminol-enhanced chemiluminescence, a measure of neutrophil oxidative activity, is dependent upon both superoxide production and mobilization of the lysosomal granule enzyme myeloperoxidase. The light is emitted from unstable high-energy oxygen species generated by activated neutrophils. Purified neutrophils (5-10×10^5/ml) were incubated in Hanks balanced salt solution containing 0.1% human serum albumin (1 ml) with the tested A2A agonist with or without rolipram and with or without tumor necrosis factor-alpha (1 U/ml) for 30 minutes at 37° C. in a shaking water bath. Then luminol (1×10^−4 M) enhanced f-met-leu-phe (1 mcM) stimulated chemiluminescence was read with a Chronologo Photometer (Crono-log Corp., Havertown, Pa.) at 37° C. for 2-4 minutes. Chemiluminescence is reported as relative peak light emitted (=height of the curve) compared to samples with tumor necrosis factor-alpha and without agonist or rolipram.

[2] = human neutrophil experiment with Rolipram, read-out: Functional + Roli
[3] = human neutrophil experiment without Rolipram, read-out: Functional

T2 sequence (P29274 whole entry): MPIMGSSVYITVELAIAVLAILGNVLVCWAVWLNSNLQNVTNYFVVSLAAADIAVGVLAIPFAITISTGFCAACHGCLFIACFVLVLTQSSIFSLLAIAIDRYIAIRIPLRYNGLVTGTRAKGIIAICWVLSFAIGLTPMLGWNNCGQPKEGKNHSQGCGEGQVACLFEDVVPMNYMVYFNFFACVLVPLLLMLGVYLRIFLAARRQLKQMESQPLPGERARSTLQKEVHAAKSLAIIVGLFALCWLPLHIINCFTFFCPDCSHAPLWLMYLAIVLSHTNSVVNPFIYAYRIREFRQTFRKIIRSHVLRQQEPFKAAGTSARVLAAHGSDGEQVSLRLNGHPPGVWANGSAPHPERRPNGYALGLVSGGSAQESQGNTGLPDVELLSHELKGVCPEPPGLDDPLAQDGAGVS

SMILES | Ki (human A1 AR) | Ki [1] | Ki (A3 AR) | EC50 (human neutrophils; [2]) | EC50 (human neutrophils; [3])
Nc1nc(I)nc2c1ncn2[C@@H]1O[C@H](C(=O)NC2CC2)C(O)C1O (stereo in doubt) [Example 4, 5-(6-Amino-2-iodo-purin-9-yl)-3,4-dihydroxy-tetrahydro-furan-2-carboxylic acid cyclopropylamide] | 33 nM | 0.6 nM | 45 nM | 0.2 nM | 2 nM
COC(=O)C1CCC(CC#Cc2nc(N)c3ncn([C@@H]4O[C@H](C(=O)NC5CC5)C(O)C4O)c3n2)CC1 (stereo in doubt) [Example 1, 4-{3-[6-Amino-9-(5-cyclopropylcarbamoyl-3,4-dihydroxy-tetrahydro-furan-2-yl)-9H-purin-2-yl]-prop-2-ynyl}-cyclohexanecarboxylic acid methyl ester] | 32 nM | 0.58 nM | 34 nM | 0.2 nM | 2 nM
C[C@@H]1CCC[C@@](O)(C#Cc2nc(N)c3ncn([C@@H]4O[C@H](C(=O)NC5CC5)C(O)C4O)c3n2)C1 (stereo in doubt) [Example 3, 5-[6-Amino-2-(1-hydroxy-3-methyl-cyclohexylethynyl)-purin-9-yl]-3,4-dihydroxy-tetrahydro-furan-2-carboxylic acid cyclopropylamide] | 1.5 nM | 0.5 nM | 3 nM | 0.04 nM | 0.3 nM
COC(=O)N1CCC(CC#Cc2nc(N)c3ncn([C@@H]4O[C@H](C(=O)NC5CC5)C(O)C4O)c3n2)CC1 (stereo in doubt) [Example 2, 4-{3-[6-Amino-9-(5-cyclopropylcarbamoyl-3,4-dihydroxy-tetrahydro-furan-2-yl)-9H-purin-2-yl]-prop-2-ynyl}-piperidine-1-carboxylic acid methyl ester] | 57 nM | 0.7 nM | 247 nM | 0.2 nM | 2 nM
